# Reference: US20080181866A1, “Amido Anti-viral Compounds” (Genelabs Technologies, Inc., priority 2006, published 2008)
# Test system: HCV replication
# Assay: HCV replicon assay (luciferase) in ET (Huh-lucubineo-ET) cell line
# Format: cell-based
# Conditions: Hepatitis C virus, tested at 5 μM; ET replicon cells; luciferase activity measured 48-72 hours later; relative to no compound control
# Outline: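 Huh-lucubineo-ET cells stably carry a subgenomic replicon with a firefly luciferase–ubiquitin–neo fusion and adaptive NS3-5B mutations; they were seeded 24 h before compound addition (0.1 nM–50 μM, 0.5% DMSO). Luciferase was read 48–72 h later as % inhibition versus no-compound control, with parallel WST-1 cytotoxicity. EC50 and TC50 came from 10-point 2-fold dilutions fitted to a Hill equation.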
row,SMILES,inhibition at 5 µM [%]
1,"O=C(NC1CC1)c1ccc(-c2csc(NC(=O)[C@@H]3CSC(C4CCOCC4)N3C(=O)[C@H]3CCCO3)n2)cc1 (some centres unmarked) [Compound 7074, 3-(Tetrahydro-furan-2-carbonyl)-2-(tetrahydro-pyran-4-yl)-thiazolidine-4-carboxylic acid [4-(4-cyclopropylcarbamoyl-phenyl)-thiazol-2-yl]-amide]",99
2,"O=C(NCCc1ccccc1)c1ccc(NC(=O)[C@@H]2CSC(c3ccncc3)N2C(=O)OCc2ccccc2)cc1 (stereo in doubt) [Compound 7113, 4-(4-Phenethylcarbamoyl-phenylcarbamoyl)-2-pyridin-4-yl-thiazolidine-3-carboxylic acid benzyl ester]",86.5
3,"CN(C)c1ncc(C2SC[C@@H](C(=O)Nc3nc(-c4ccc(C(=O)NC5CC5)cc4)cs3)N2C(=O)OCc2ccccc2)cn1 (stereo in doubt) [Compound 7131, 4-[4-(4-Cyclopropylcarbamoyl-phenyl)-thiazol-2-ylcarbamoyl]-2-(2-dimethylamino-pyrimidin-5-yl)-thiazolidine-3-carboxylic acid benzyl ester]",100
4,"O=C(Cc1cccc(NC(=O)[C@@H]2CSC(c3ccncc3)N2C(=O)OCc2ccccc2)c1)Nc1ccccc1 (some centres unmarked) [Compound 7072, 4-(3-Phenylcarbamoylmethyl-phenylcarbamoyl)-2-pyridin-4-yl-thiazolidine-3-carboxylic acid benzyl ester]",80.8
5,"O=C(NC1CC1)c1ccc(-c2csc(NC(=O)[C@@H]3CSC(c4cncnc4)N3C(=O)OCc3ccccc3)n2)cc1 (mixture of isomers) [Compound 7022, (R)-4-[4-(4-Cyclopropylcarbamoyl-phenyl)-thiazol-2-ylcarbamoyl]-2-pyrimidin-5-yl-thiazolidine-3-carboxylic acid benzyl ester]",100
6,"O=C(NC1CC1)c1ccc(NC(=O)[C@@H]2CSC(c3ccncc3)N2C(=O)OCc2ccccc2)cc1 (stereo in doubt) [Compound 7066, 4-(4-Cyclopropylcarbamoyl-phenylcarbamoyl)-2-pyridin-4-yl-thiazolidine-3-carboxylic acid benzyl ester]",6.9
7,"COc1ccc(Cc2cnc(NC(=O)[C@@H]3CSC(c4ccncc4)N3C(=O)OCc3ccccc3)s2)cc1 (stereo in doubt) [Compound 7137, 4-[5-(4-Methoxy-benzyl)-thiazol-2-ylcarbamoyl]-2-pyridin-4-yl-thiazolidine-3-carboxylic acid benzyl ester]",17.1
8,"CN(C(=O)[C@@H]1CSC(c2ccncc2)N1C(=O)OCc1ccccc1)c1nc(-c2ccc(C(=O)NC3CC3)cc2)cs1 (some centres unmarked) [Compound 7106, 4-{[4-(4-Cyclopropylcarbamoyl-phenyl)-thiazol-2-yl]-methyl-carbamoyl}-2-pyridin-4-yl-thiazolidine-3-carboxylic acid benzyl ester]",32.9
9,"COc1ccccc1C1SC[C@@H](C(=O)Nc2nc(-c3ccc(C(=O)NC4CC4)cc3)cs2)N1C(=O)OCc1ccccc1 (mixture of isomers) [Compound 7047, (R)-4-[4-(4-Cyclopropylcarbamoyl-phenyl)-thiazol-2-ylcarbamoyl]-2-(2-methoxy-phenyl)-thiazolidine-3-carboxylic acid benzyl ester]",99.6
10,"O=C(NC1CC1)c1ccc(-c2csc(NC(=O)[C@@H]3CSC(C4CCCNC4)N3C(=O)OCc3ccccc3)n2)cc1 (mixture of isomers) [Compound 7021, (R)-4-[4-(4-Cyclopropylcarbamoyl-phenyl)-thiazol-2-ylcarbamoyl]-2-piperidin-3-yl-thiazolidine-3-carboxylic acid benzyl ester]",100
11,"O=C(NC1CC1)c1ccc(-c2csc(NC(=O)[C@@H]3CS[C@H](c4cccnc4)N3C(=O)OCc3ccccc3)n2)cc1 [Compound 7028, (2R,4R)-4-[4-(4-Cyclopropylcarbamoyl-phenyl)-thiazol-2-ylcarbamoyl]-2-pyridin-3-yl-thiazolidine-3-carboxylic acid benzyl ester]",100
12,"O=C(NC1CC1)c1ccc(-c2csc(NC(=O)[C@@H]3CSC(c4ccnc(O)c4)N3C(=O)OCc3ccccc3)n2)cc1 (mixture of isomers) [Compound 7049, (R)-4-[4-(4-Cyclopropylcarbamoyl-phenyl)-thiazol-2-ylcarbamoyl]-2-(2-hydroxy-pyridin-4-yl)-thiazolidine-3-carboxylic acid benzyl ester]",98.8
13,"COc1ccc(CNC(=O)Cc2cccc(NC(=O)[C@@H]3CSC(c4ccncc4)N3C(=O)OCc3ccccc3)c2)cc1 (some centres unmarked) [Compound 7128, 4-{3-[(4-Methoxy-benzylcarbamoyl)-methyl]-phenylcarbamoyl}-2-pyridin-4-yl-thiazolidine-3-carboxylic acid benzyl ester]",97.5
14,"CN(C)C(=O)CCCCC1SC[C@@H](C(=O)Nc2nc(-c3ccc(C(=O)NC4CC4)cc3)cs2)N1C(=O)OCc1ccccc1 (mixture of isomers) [Compound 7125, 4-[4-(4-Cyclopropylcarbamoyl-phenyl)-thiazol-2-ylcarbamoyl]-2-(4-dimethylcarbamoyl-butyl)-thiazolidine-3-carboxylic acid benzyl ester]",100
15,"COc1ccc(C2SC[C@@H](C(=O)Nc3nc(-c4ccc(C(=O)NC5CC5)cc4)cs3)N2C(=O)OCc2ccccc2)cc1 (mixture of isomers) [Compound 7030, (R)-4-[4-(4-Cyclopropylcarbamoyl-phenyl)-thiazol-2-ylcarbamoyl]-2-(4-methoxy-phenyl)-thiazolidine-3-carboxylic acid benzyl ester]",99.9
16,"O=C(NC1CC1)c1ccc(-c2csc(NC(=O)[C@@H]3CSC(CCCCC(=O)N4CCOCC4)N3C(=O)OCc3ccccc3)n2)cc1 (some centres unmarked) [Compound 7071, 4-[4-(4-Cyclopropylcarbamoyl-phenyl)-thiazol-2-ylcarbamoyl]-2-(5-morpholin-4-yl-5-oxo-pentyl)-thiazolidine-3-carboxylic acid benzyl ester]",100
17,"O=C(NCCN1CCOCC1)c1ccc(-c2csc(NC(=O)[C@@H]3CSC4(CCOCC4)N3C(=O)OCc3ccccc3)n2)cc1 [Compound 7138, 3-{4-[4-(2-Morpholin-4-yl-ethylcarbamoyl)-phenyl]-thiazol-2-ylcarbamoyl}-8-oxa-1-thia-4-aza-spiro[4.5]decane-4-carboxylic acid benzyl ester]",100
18,"CN1CCC2(CC1)SC[C@@H](C(=O)Nc1nc(-c3ccc(C(=O)NC4CC4)cc3)cs1)N2C(=O)OCc1ccccc1 [Compound 7114, 3-[4-(4-Cyclopropylcarbamoyl-phenyl)-thiazol-2-ylcarbamoyl]-8-methyl-1-thia-4,8-diaza-spiro[4.5]decane-4-carboxylic acid benzyl ester]",100
19,"O=C(NC1CC1)c1ccc(-c2csc(NC(=O)[C@@H]3CSC(c4ccccc4)N3C(=O)OCc3ccccc3)n2)cc1 (stereo partly drawn) [Compound 7044, (R)-4-[4-(4-Cyclopropylcarbamoyl-phenyl)-thiazol-2-ylcarbamoyl]-2-phenyl-thiazolidine-3-carboxylic acid benzyl ester]",98
20,"O=C(NCc1ccccc1)c1cccc(NC(=O)[C@@H]2CSC(c3ccncc3)N2C(=O)OCc2ccccc2)c1 (some centres unmarked) [Compound 7100, 4-(3-Benzylcarbamoyl-phenylcarbamoyl)-2-pyridin-4-yl-thiazolidine-3-carboxylic acid benzyl ester]",80.1
21,"O=C(NC1CC1)c1ccc(-c2csc(NC(=O)[C@@H]3CSC(c4ccccn4)N3C(=O)OCc3ccccc3)n2)cc1 (stereo partly drawn) [Compound 7010, (R)-4-[4-(4-Cyclopropylcarbamoyl-phenyl)-thiazol-2-ylcarbamoyl]-2-pyridin-2-yl-thiazolidine-3-carboxylic acid benzyl ester]",98.1
22,"O=C(NC1CC1)c1ccc(-c2csc(NC(=O)[C@@H]3CSC(C4CCOCC4)N3C(=O)[C@@H]3CCCO3)n2)cc1 (some centres unmarked) [Compound 7069, 3-(Tetrahydro-furan-2-carbonyl)-2-(tetrahydro-pyran-4-yl)-thiazolidine-4-carboxylic acid [4-(4-cyclopropylcarbamoyl-phenyl)-thiazol-2-yl]-amide]",98.8
23,"CC(=O)c1cccc(C2SC[C@@H](C(=O)Nc3nc(-c4ccc(C(=O)NC5CC5)cc4)cs3)N2C(=O)OCc2ccccc2)c1 (some centres unmarked) [Compound 7120, 2-(3-Acetyl-phenyl)-4-[4-(4-cyclopropylcarbamoyl-phenyl)-thiazol-2-ylcarbamoyl]-thiazolidine-3-carboxylic acid benzyl ester]",100
24,"O=C(Cc1ccc(NC(=O)[C@@H]2CSC(c3ccncc3)N2C(=O)OCc2ccccc2)cc1)Nc1ccccc1 (some centres unmarked) [Compound 7126, 4-(4-Phenylcarbamoylmethyl-phenylcarbamoyl)-2-pyridin-4-yl-thiazolidine-3-carboxylic acid benzyl ester]",93.8
25,"O=C(NC1CC1)c1ccc(-c2csc(NC(=O)[C@@H]3CSC(c4cncs4)N3C(=O)OCc3ccccc3)n2)cc1 (mixture of isomers) [Compound 7015, (R)-4-[4-(4-Cyclopropylcarbamoyl-phenyl)-thiazol-2-ylcarbamoyl]-4,5-dihydro-[2,5′]bithiazolyl-3-carboxylic acid benzyl ester]",100

# Same assay, conditions: tested at 5 μM; ET replicon cells; luciferase activity measured 48-72 hours later; relative to no compound control; 5 µM
row,SMILES,% inhibition at 5 μM [%]
1,"CC(C)(C)OC(=O)N1C(c2cccnc2)SC[C@H]1C(=O)Nc1nc(-c2ccc(C(=O)NC3CC3)cc2)cs1 (single isomer, unassigned) [Compound 7055, 4-[4-(4-Cyclopropylcarbamoyl-phenyl)-thiazol-2-ylcarbamoyl]-2-pyridin-3-yl-thiazolidine-3-carboxylic acid tert-butyl ester]",99.1
